Columns and labels:
[1] = system: human mutated 5HT2A receptor, AP-3; assay: Receptor-mediated inositol phosphate (IP3) accumulation, AP-3; format: cell-based
Protocol: On day one, 1×10^7 293 cells per 150 mm plate were plated out. On day two, two reaction tubes were prepared (the proportions to follow for each tube are per plate): tube A was prepared by mixing 20 μg DNA (e.g., pCMV vector; pCMV vector AP-1 cDNA, etc.) in 1.2 ml serum free DMEM (Irvine Scientific, Irvine, Calif.); tube B was prepared by mixing 120 μl lipofectamine (Gibco BRL) in 1.2 ml serum free DMEM. Tubes A and B were then admixed by inversions (several times), followed by incubation at room temperature for 30-45 min. The admixture is referred to as the "transfection mixture". Plated 293 cells were washed with 1×PBS, followed by addition of 10 ml serum free DMEM. 2.4 ml of the transfection mixture was then added to the cells, followed by incubation for 4 hrs at 37° C./5% CO2. On day 3, cells were trypsinized and counted, followed by plating of 1×10^6 cells/well (poly D-lysine treated 12-well plates). Cells were permitted to adhere to the wells, followed by one wash with 1×PBS. Thereafter, 0.5 μCi ^3 H-inositol in 1 ml inositol-free DMEM was added per well. Protocol B.
On day 4, the cells were washed with 0.5 ml PBS and then 0.45 ml of assay medium was added containing inositol-free/serum free media, 10 μM pargyline, 10 mM lithium chloride, or 0.4 ml of assay medium and 50 ul of 10× ketanserin (ket) to a final concentration of 10 μM. The cells were then incubated for 30 minutes at 37° C. Then the cells were washed with 0.5 ml PBS and 200 ul of fresh/ice cold stop solution (1M KOH; 18 mM Na-borate; 3.8 mM EDTA) was added/well. The solution was kept on ice for 5-10 minutes or until the cells were lysed and then neutralized by 200 μl of fresh/ice cold neutralization sol. (7.5% HCL). The lysate was then transferred into 1.5 ml microcentrifuge tubes and 1 ml of chloroform/methanol (1:2) was added/tube. The solution was vortexed for 15 seconds and the upper phase was applied to a Biorad AG1-X8 anion exchange resin (100-200 mesh). The resin was washed with water and 0.9 ml of the upper phase was loaded onto the column. The column was washed with 10 mls of 5 mM myo-inositol and 10 ml of 5 mM Na-borate/60 mM Na-formate. The inositol trisphosphates were eluted into scintillation vials containing 10 ml of scintillation cocktail with 2 ml of 0.1 M formic acid/1 M ammonium formate. The columns were regenerated by washing with 10 ml of 0.1 M formic acid/3M ammonium formate and rinsed twice with dd H2 O and stored at room temperature in water.
Candidate compound identified in the assays of Examples 9a-9c were then evaluated for inositol phosphate accumulation, following the protocol of Example 5 ([…] expressing human mutated 5HT2A receptor, AP-3), modified as follows: tube A was prepared by mixing 16 μg DNA (e.g., pCMV vector; pCMV vector AP-1 cDNA, etc.) in 1.0 ml serum free DMEM (Irvine Scientific, Irvine, Calif.); tube B was prepared by mixing 60 μl lipofectamine (Gibco BRL) in 1.0 ml serum free DMEM. Tubes A and B were then admixed by inversions (several times), followed by incubation at room temperature for 30 min. The admixture is referred to as the "transfection mixture". Plated 293 cells were washed with 10 ml Serum Free DMEM, followed by addition of 11 ml Serum Free DMEM. 2.0 ml of the transfection mixture was then added to the cells, followed by incubation for 5 hrs at 37° C./5% CO2. On day 3, cells were trypsinized and counted, followed by plating of 1×10^6 cells/well (12-well plates). Cells were permitted to adhere to the wells for 8 hrs, followed by one wash with 1×PBS. Thereafter, 0.5 μCi ^3 H-inositol in 1 ml inositol-free DMEM was added per well.
On day 4, the cells were washed with 1.5 ml PBS and then 0.9 ml of assay medium was added containing inositol-free/serum free media, 10 μM pargyline, 10 mM lithium chloride, for 5 min in 37° C./5% CO2 followed by 100 μl addition of candidate compound diluted in the same material. The cells were then incubated for 120 minutes at 37° C. […]

5HT2 receptors [2] = assay: DOI locomotor activity test in rats (DOI inhibition study), intraperitoneal test compound; format: in vivo, rat (male Sprague-Dawley); settings: i.p. 30 min before DOI (0.3 mg/kg s.c.)
Protocol: (§1) FIG. 3 provides a graphic summary of dose-response results from in vivo analysis of compound 116082 in a 1-(2,5-dimethoxy-4-iodophenyl)-2-aminopropane ("DOI") inhibition study (fine movement; ambulation; and animal rearing outcome measures). 116082 was administered 30 min prior to DOI. Animals were placed in locomotor activity cages 10 min after DOI administration and activity was measured for 10 min. Results are presented as total activity counts over the 10 min of exposure to the locomotor activity apparatus.
as §1, with “FIG. 4” for “FIG. 3”, “compound 116081” for “compound 116082”, “a DOI” for “a 1-(2,5-dimethoxy-4-iodophenyl)-2-aminopropane ("DOI")”, “measures). 116081” for “measures). 116082”
Assessment of 5-HT2 receptor antagonism in vivo was made by using the DOI locomotor activity test in rats as described by Krebs-Thomson (Psychopharmacology, 140:69-74, 1998).
Motor function was assessed by using automated locomotor activity cages. The rats were placed in a standard rodent cage surrounded by photocell beams, which allow for automated recording of motor activity. […]

[3] = Bar catalepsy test in rats (extrapyramidal side effect analysis); format: in vivo, rat (male Sprague-Dawley)
[4] = DOI inhibition study in rats, oral administration of test compound (oral availability); format: in vivo, rat; settings: in vivo; rat; 50 mg/kg oral vs 10 mg/kg i.p., inferred from DOI test
Protocol: (§2) FIG. 6 provides a graphic summary of the effects of oral administration of 116082 and 116081 in a DOI inhibition study in rats. Values represent the mean±SEMs (n=6/group). #P<0.05 vs. vehicle/vehicle, *P<0.05 vs. vehicle/DOI, Student t-test.
(§3) Based upon the in vivo data developed, oral bioavailability of compounds […] was considered. The compounds were administered by oral gavage at a dose of 50 mg/kg, 30 min prior to DOI in rats (see Example 11A, supra). Animals were placed in the locomotor activity cages 10 min after DOI administration and activity was measured for 10 min. Results, presented in FIG. 6, provide total activity counts over the 10 min of exposure to the locomotor activity apparatus.

5HT2 receptors [5] = assay: as above; format: in vivo, rat
Protocol: as §2, §3

[6] = system: human 5HT2A receptor compared with human 5HT2C receptor; assay: Selectivity for 5HT2A over 5HT2C receptor (as measured by IC50 values); format: binding
5HT2 receptors [7] = settings: peripheral administration, 0.3 mg/kg; cited from earlier work
[8] = rodents; cited from earlier work

Cn1cc(Br)c(-c2cccc(NC(=O)Nc3ccc(F)cc3)c2)n1 [Compound 116082, {[3-(4-bromo-1-methylpyrazol-3-yl)phenyl]amino}-N-(4-fluorophenyl)carboxamide]
IP3 % of Control ([1]; 10 μM test compound, triplicate, control without test compound): 11% | profile in in vitro functional assays ([1]; in vitro functional assays): selective 5HT2A inverse agonist properties | reversal of DOI-induced motor dysfunction (5HT2 receptors [2]): beneficially reverses DOI-induced motor dysfunction | extra-pyramidal side effects ([3]; at a dose 8 times greater than the dose required to block 5HT2A receptors in vivo): does not induce extra-pyramidal side effects in rats | induction of catalepsy ([3]; i.p., 10 to 80 mg/kg): does not induce catalepsy in rats | time spent on the bar ([3]; i.p., 10 to 80 mg/kg, 60 min before test): did not induce a dose-dependent increase in time spent on the bar | selectivity ratio ([3]; rat, in vivo, ip, bar test versus DOI test, rats, read-out: dose without extra-pyramidal side effects relative to dose required to block 5HT2A receptors in vivo): 8 | bioavailability [4]: ≥ 20% | oral efficacy compared with intraperitoneal administration (5HT2 receptors [5]; 50 mg/kg oral vs 10 mg/kg i.p.): as efficacious as a 10 mg/kg dose of the same compounds administered intraperitoneally | reversal of DOI-induced motor dysfunction, oral (5HT2 receptors [5]; oral gavage 50 mg/kg, 30 min prior to DOI): reversed DOI-induced motor dysfunction in rats | oral activity (5HT2 receptors [5]; rat, DOI test, 50 mg/kg oral): orally active | selectivity preference for the 5HT2A receptor compared with the 5HT2C receptor [6]: 100 fold

COc1cc(CC(C)N)c(OC)cc1I (centres unmarked) [DOI, 1-(2,5-dimethoxy-4-iodophenyl)-2-aminopropane]
motor function effect of DOI alone (5HT2 receptors [7]): produces motor dysfunction in rats as shown by a decrease in ambulation

C[C@]12N[C@H](Cc3ccccc31)c1ccccc12 [MK-801]
effect of MK-801 alone on locomotor activity and stereotypy [8]: induces significant increases in locomotor activity and stereotypy
